Measured values taken from patent publication US20220128542A1, “TREATMENT EFFICIENCY EVALUATION” (TX MEDIC AB, priority 2019, published 2022).

Tested on: brain of rats subjected to closed-head diffuse severe TBI (sTBI)
Test: HPLC of energy metabolites, antioxidants and oxidative/nitrosative stress biomarkers in brain, dose study after sTBI (Example 3)
Type: in vivo, rat
Excerpt: Male Wistar rats (n=160) of 300-350 g body weight were used in this study.
1994, 80: 291-300. This model causes diffuse axonal injury and it is able to reproduce the physical and mechanical characteristics of the diffuse TBI in humans.
Rats were placed prone on a bed of specific polyurethane foam inserted in a special container. This foam dissipates the major part of the potential energy (deriving from the mechanical forces) and prevents any rebound of the animal after the impact that could produce spinal damages.
These time points are coincident with the worst biochemical derangement (2 days) or, in the case of a mildly injured brain, with a full metabolic recovery (7 days).
The drug treatment consisted in a subcutaneous injection of 0.5 ml of LMW-DS (Tikomed) and administered at 3 different concentrations (1, 5 and 15 mg/kg body weight), according to the schematic protocol described below.
Sham-operated animals underwent the same procedure of anesthesia but TBI and were used as the control group.
Rats used in this study were divided into 4 groups in order to carry out a study on the efficacy of three different concentrations of LMW-DS at two different times post TBI. As subsequently specified, in each group there were animals subjected to a specific treatment for metabolic analyses and other animals intended to histo-morphological studies, according to the procedures described below.
Rats subjected to sTBI and receiving a single administration of LMW-DS after 30 minutes post-TBI, with sacrifice at 2 days post-TBI. Animals were divided in the following subgroups:
Rats subjected to sTBI and receiving a single administration of LMW-DS after 30 minutes post-TBI, with sacrifice at 7 days post-TBI. Animals were divided in the following subgroups:
Rats (n=12) subjected to sTBI and receiving repeated administrations of the maximal dose of LMW-DS (15 mg/kg b.w.) after 30 minutes, 3 days and 5 days post-TBI, with sacrifice at 7 days post-TBI. Four additional rats were used for the histo-morphological studies. Total rats in this group: n=16
To minimize metabolite loss, an in vivo craniectomy was performed in all animals during anesthesia. The rat skull was carefully removed, the brain was exposed, sharply cut along the sagittal fissure and the two hemispheres were separated. The hemispheres dedicated to biochemical analyses were freeze-clamped by aluminum tongues pre-cooled in liquid nitrogen and then immersed in liquid nitrogen. The freeze-clamping procedure was introduced to accelerate freezing of the tissue, thus minimizing potential metabolite loss.
Tissue homogenization for metabolite analyses was effected as described below. After the wet weight (w.w.) determination, the frozen hemispheres were placed into 7 ml of ice-cold, nitrogen-saturated, precipitating solution (1:10 w/v) composed by CH3CN+10 mM KH2PO4, pH 7.40, (3:1; v:v), and the homogenization was performed using an Ultra-Turrax homogenizer set at 24,000 rpm/min (Janke & Kunkel, Staufen, Germany). After centrifugation at 20,690×g, for 10 min at 4° C., the clear supernatants were saved, pellets were supplemented with an aliquot of 10 mM KH2PO4 and homogenized again as described above and saved overnight at −20° C. in order to obtain a complete recovery of aqueous phase from tissue. A second centrifugation was performed (20,690×g, for 10 min at 4° C.) and supernatants combined with those previously obtained were extracted by vigorous agitation with a double volume of HPLC-grade CHCl3 and centrifuged as above.

[1] = rats 2 days post-TBI, single 15 mg/kg b.w. 30 min after trauma
[2] = rats 7 days post-sTBI, repeated 15 mg/kg b.w.
[3] = rats 7 days post-sTBI, single 1 mg/kg b.w.
[4] = rats 7 days post-sTBI, single 5 mg/kg b.w.
[5] = rats 7 days post-sTBI, single 15 mg/kg b.w.

sodium salt of dextran sulfate [LMW-DS]
GUANOSINE concentration in brain homogenate [1]: 24.35 ± 4.05 nmol/g w.w.
HYPDXANTHINE concentration in brain homogenate [1]: 6.82 ± 1.12 nmol/g w.w.
INOSINE concentration in brain homogenate [1]: 142.91 ± 18.63 nmol/g w.w.
URACIL concentration in brain homogenate [1]: 15.55 ± 3.04 nmol/g w.w.
β-PSEUDOURIDINE concentration in brain homogenate [1]: 7.84 ± 1.57 nmol/g w.w.
ADENOSINE concentration in brain homogenate [2]: 40.84 ± 30.25 nmol/g w.w.
ADP-Ribose concentration in brain homogenate [2]: 13.23 ± 3.32 nmol/g w.w.
AMP concentration in brain homogenate [2]: 43.12 ± 3.39 nmol/g w.w.
Acetyl-CoA concentration in brain homogenate [2]: 37.91 ± 6.46 nmol/g w.w.
CMP concentration in brain homogenate [2]: 31.21 ± 13.28 nmol/g w.w.
CoA-SH concentration in brain homogenate [2]: 45.76 ± 5.87 nmol/g w.w.
GDP concentration in brain homogenate [2]: 109.06 ± 12.46 nmol/g w.w.
GUANINE concentration in brain homogenate [2]: 3.32 ± 1.41 nmol/g w.w.
GUANOSINE concentration in brain homogenate [2]: 19.66 ± 4.10 nmol/g w.w.
INOSINE concentration in brain homogenate [2]: 139.26 ± 15.62 nmol/g w.w.
Malonyl-CoA concentration in brain homogenate [2]: 12.56 ± 2.27 nmol/g w.w.
NADPH concentration in brain homogenate [2]: 11.21 ± 2.60 nmol/g w.w.
NO2 concentration in brain homogenate [2]: 130.69 ± 28.31 nmol/g w.w.
UDP-GIcNac concentration in brain homogenate [2]: 86.42 ± 29.89 nmol/g w.w.
UDP-Gal concentration in brain homogenate [2]: 135.15 ± 9.29 nmol/g w.w.
UDP-GalNac concentration in brain homogenate [2]: 16.50 ± 4.73 nmol/g w.w.
URACIL concentration in brain homogenate [2]: 24.13 ± 4.96 nmol/g w.w.
URIDINE concentration in brain homogenate [2]: 97.21 ± 23.03 nmol/g w.w.
XANTHINE concentration in brain homogenate [2]: 11.24 ± 3.18 nmol/g w.w.
ADP concentration in brain homogenate [3]: 286.78 ±38.19 nmol/g w.w.
AMP concentration in brain homogenate [3]: 43.13 ± 3.39 nmol/g w.w.
ASCORBIC ACID concentration in brain homogenate [3]: 2177.22 ± 262.21 nmol/g w.w.
CDP choline concentration in brain homogenate [3]: 6.26 ± 2.01 nmol/g w.w.
CMP concentration in brain homogenate [3]: 25.41 ± 10.81 nmol/g w.w.
CYTIDINE concentration in brain homogenate [3]: 29.67 ± 10.44 nmol/g w.w.
CYTOSINE concentration in brain homogenate [3]: 16.03 ± 3.44 nmol/g w.w.
GDP concentration in brain homogenate [3]: 121.72 ± 13.91 nmol/g w.w.
GMP concentration in brain homogenate [3]: 113.06 ± 53.51 nmol/g w.w.
GSH concentration in brain homogenate [3]: 1627.30 ± 214.51 nmol/g w.w.
GUANINE concentration in brain homogenate [3]: 6.86 ± 2.92 nmol/g w.w.
GUANOSINE concentration in brain homogenate [3]: 19.11 ± 3.98 nmol/g w.w.
NADH concentration in brain homogenate [3]: 8.20 ± 1.41 nmol/g w.w.
NAD^+ concentration in brain homogenate [3]: 268.14 ± 37.97 nmol/g w.w.
NO3 concentration in brain homogenate [3]: 153.62 ± 26.24 nmol/g w.w.
UDP-GIcNac concentration in brain homogenate [3]: 85.36 ± 29.53 nmol/g w.w.
UDP-Gal concentration in brain homogenate [3]: 130.20 ± 8.95 nmol/g w.w.
UDP-GalNac concentration in brain homogenate [3]: 15.85 ± 4.54 nmol/g w.w.
XANTHINE concentration in brain homogenate [3]: 12.53 ± 3.54 nmol/g w.w.
ADP concentration in brain homogenate [4]: 289.27 ± 38.52 nmol/g w.w.
AMP concentration in brain homogenate [4]: 59.50 ± 4.68 nmol/g w.w.
ASCORBIC ACID concentration in brain homogenate [4]: 2195.87 ± 264.45 nmol/g w.w.
CDP choline concentration in brain homogenate [4]: 10.37 ± 3.33 nmol/g w.w.
CYTIDINE concentration in brain homogenate [4]: 26.51 ± 9.33 nmol/g w.w.
CYTOSINE concentration in brain homogenate [4]: 12.67 ± 2.72 nmol/g w.w.
GMP concentration in brain homogenate [4]: 101.42 ± 48.00 nmol/g w.w.
GUANINE concentration in brain homogenate [4]: 7.92 ± 3.37 nmol/g w.w.
GUANOSINE concentration in brain homogenate [4]: 33.42 ± 6.96 nmol/g w.w.
NADH concentration in brain homogenate [4]: 8.83 ± 1.26 nmol/g w.w.
NADPH concentration in brain homogenate [4]: 12.30 ± 2.86 nmol/g w.w.
NADP^+ concentration in brain homogenate [4]: 24.45 ± 8.97 nmol/g w.w.
UDP concentration in brain homogenate [4]: 44.19 ± 6.22 nmol/g w.w.
UDP-GIcNac concentration in brain homogenate [4]: 85.14 ± 29.45 nmol/g w.w.
UDP-Gal concentration in brain homogenate [4]: 132.66 ± 9.12 nmol/g w.w.
UDP-Glc concentration in brain homogenate [4]: 58.10 ± 11.81 nmol/g w.w.
XANTHINE concentration in brain homogenate [4]: 14.33 ± 4.05 nmol/g w.w.
ADENOSINE concentration in brain homogenate [5]: 55.95 ± 41.44 nmol/g w.w.
ADP concentration in brain homogenate [5]: 276.83 ± 36.87 nmol/g w.w.
ADP-Ribose concentration in brain homogenate [5]: 19.21 ± 4.82 nmol/g w.w.
Acetyl-CoA concentration in brain homogenate [5]: 38.60 ± 6.57 nmol/g w.w.
CDP choline concentration in brain homogenate [5]: 10.06 ± 3.23 nmol/g w.w.
CYTIDINE concentration in brain homogenate [5]: 33.06 ± 11.63 nmol/g w.w.
CYTOSINE concentration in brain homogenate [5]: 13.87 ± 2.98 nmol/g w.w.
GDP concentration in brain homogenate [5]: 122.07 ± 13.95 nmol/g w.w.
GUANINE concentration in brain homogenate [5]: 5.27 ± 2.24 nmol/g w.w.
GUANOSINE concentration in brain homogenate [5]: 20.91 ± 4.36 nmol/g w.w.
NADP^+ concentration in brain homogenate [5]: 23.75 ± 8.72 nmol/g w.w.
NAD^+ concentration in brain homogenate [5]: 491.52 ± 69.61 nmol/g w.w.
NO3 concentration in brain homogenate [5]: 161.99 ± 27.67 nmol/g w.w.
UDP-Gal concentration in brain homogenate [5]: 137.57 ± 9.46 nmol/g w.w.
XANTHINE concentration in brain homogenate [5]: 12.71 ± 3.60 nmol/g w.w.
